Measured values: article PMC12019880 (Frontiers in Pharmacology, 2025)
Values joined by “and” are separate entries in the source; they are usually repeats but may differ in a detail not shown here. Equal values may be shown once.

Experiments:
[1] = tested on: Na^+ current of larger diameter DRG neurons; assay type: cell-based, mouse
[2] = tested on: TTX-S Na^+ currents from adult mouse DRG neurons
N-type calcium channels = details: cited from earlier work
Nav1.7 = details: cited from earlier work
[3] = tested on: mice (adult female Swiss); assay: hot-plate test (heat sensitivity); assay type: in vivo, mouse; details: 55.0°C
Description: (§1) The study was experimentally designed to have group sizes of at least six animals per group, with intravenous injection as an exclusion criterion. In addition, randomization and blinding (one of the two experimenters being blind to treatment group) were undertaken in all animal experiments. […] Prior to testing, each mouse underwent a 20-min acclimation to the experimental laboratory environment (in its home cage).
Each mouse, injected or not with PBS +0.1% BSA or toxin solution in the right hind limb, was put on a hot-plate (HCP No. 35150, Ugo Basile, Italy) set at the temperature of 55.0°C ± 0.2°C 15–30 min after limb injection. The measured parameter as the first pain-related manifestation was the latency (in seconds) for the animal to shake the right hind limb ([Deuis et al., 2017]). This latency, considered as a painful response to heat, was recorded simultaneously by two observers (one being blind to treatment group) with a timer integrated into the set-up. A maximal cut-off time of 30 s was used to prevent tissue damage.

hNav1.7 = hNav1.7 (Homo sapiens, UniProt Q15858); assay: automated patch-clamp, hNav1.7 stably expressed in CHO cells; assay type: cell-based
hNav1.7, sequence (Q15858 whole entry): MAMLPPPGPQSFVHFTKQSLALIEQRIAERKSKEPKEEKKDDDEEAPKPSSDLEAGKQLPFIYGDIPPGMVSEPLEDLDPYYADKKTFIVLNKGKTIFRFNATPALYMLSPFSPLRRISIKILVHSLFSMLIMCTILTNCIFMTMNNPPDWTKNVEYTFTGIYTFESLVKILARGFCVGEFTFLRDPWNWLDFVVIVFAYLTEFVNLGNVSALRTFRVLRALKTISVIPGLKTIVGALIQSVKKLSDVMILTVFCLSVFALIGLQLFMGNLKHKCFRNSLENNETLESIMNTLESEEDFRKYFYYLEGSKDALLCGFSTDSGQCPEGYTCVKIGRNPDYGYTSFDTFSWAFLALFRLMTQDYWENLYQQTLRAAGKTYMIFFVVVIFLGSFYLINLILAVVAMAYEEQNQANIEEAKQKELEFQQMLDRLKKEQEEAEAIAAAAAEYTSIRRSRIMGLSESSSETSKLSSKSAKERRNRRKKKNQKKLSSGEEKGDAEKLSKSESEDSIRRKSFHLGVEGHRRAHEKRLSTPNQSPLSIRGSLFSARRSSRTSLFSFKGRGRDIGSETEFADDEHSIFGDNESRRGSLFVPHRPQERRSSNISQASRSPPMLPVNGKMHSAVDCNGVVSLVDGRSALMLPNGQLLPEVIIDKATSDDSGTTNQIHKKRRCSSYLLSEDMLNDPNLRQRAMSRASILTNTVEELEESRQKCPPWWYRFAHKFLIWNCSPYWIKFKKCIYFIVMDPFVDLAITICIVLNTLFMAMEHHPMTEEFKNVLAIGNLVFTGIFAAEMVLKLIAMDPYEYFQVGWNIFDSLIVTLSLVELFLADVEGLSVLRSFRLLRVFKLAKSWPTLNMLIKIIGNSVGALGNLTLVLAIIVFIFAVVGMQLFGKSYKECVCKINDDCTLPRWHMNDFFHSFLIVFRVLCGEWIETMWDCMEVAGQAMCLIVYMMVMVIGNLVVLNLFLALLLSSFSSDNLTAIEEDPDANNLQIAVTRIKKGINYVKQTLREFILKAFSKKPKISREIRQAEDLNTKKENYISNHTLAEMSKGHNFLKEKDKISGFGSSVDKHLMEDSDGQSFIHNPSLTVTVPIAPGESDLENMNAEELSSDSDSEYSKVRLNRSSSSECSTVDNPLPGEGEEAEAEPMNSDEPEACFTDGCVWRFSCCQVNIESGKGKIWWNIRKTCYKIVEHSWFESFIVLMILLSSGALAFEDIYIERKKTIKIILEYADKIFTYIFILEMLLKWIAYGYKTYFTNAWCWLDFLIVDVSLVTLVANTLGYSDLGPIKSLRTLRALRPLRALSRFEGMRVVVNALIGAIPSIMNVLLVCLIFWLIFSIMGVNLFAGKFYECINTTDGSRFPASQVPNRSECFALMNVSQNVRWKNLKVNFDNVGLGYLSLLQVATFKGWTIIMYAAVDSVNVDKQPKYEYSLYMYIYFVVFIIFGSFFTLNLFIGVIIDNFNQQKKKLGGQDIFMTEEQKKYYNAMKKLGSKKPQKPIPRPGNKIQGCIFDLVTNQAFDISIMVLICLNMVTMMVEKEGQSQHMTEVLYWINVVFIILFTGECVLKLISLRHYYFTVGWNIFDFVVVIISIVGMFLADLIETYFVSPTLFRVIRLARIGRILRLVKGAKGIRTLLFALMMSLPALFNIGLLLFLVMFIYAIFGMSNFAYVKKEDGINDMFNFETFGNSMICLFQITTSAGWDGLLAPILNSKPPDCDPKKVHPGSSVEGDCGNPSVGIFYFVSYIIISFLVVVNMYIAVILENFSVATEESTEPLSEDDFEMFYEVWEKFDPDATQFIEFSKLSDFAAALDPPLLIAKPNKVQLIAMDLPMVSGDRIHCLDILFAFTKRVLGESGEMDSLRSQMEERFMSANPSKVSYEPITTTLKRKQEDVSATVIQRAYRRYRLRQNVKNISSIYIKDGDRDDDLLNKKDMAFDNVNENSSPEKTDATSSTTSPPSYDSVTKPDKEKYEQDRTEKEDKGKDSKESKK
Procedure: (§2) CHO cells stably expressing hNav1.7 were cultured in Dulbecco’s Modified Eagle’s Medium (DMEM) supplemented with 10% foetal calf serum, 1 mM pyruvic acid, 4 mM glutamine, 10 U/mL penicillin and 10 μg/mL streptomycin (Gibco, Grand Island, NY), and incubated at 37°C in a 5% CO2 atmosphere. For electrophysiological recordings, cells were detached with trypsin and floating single cells were diluted (∼300,000 cells/mL) in medium containing (in mM): 4 KCl, 140 NaCl, five glucose, 10 2-[4-(2-hydroxyethyl)piperazin-1-yl]ethanesulfonic acid (HEPES, pH 7.4, osmolarity 290 mOsm). Similar culturing conditions were used for HEK-293 cell lines expressing hNav1.1, hNav1.2, hNav1.3, hNav1.5 and hNav1.6 channels. The plasmid pcDNA3.1+/C-(K)-DYK (Genscript, Piscataway, New Jersey, USA) was used for transient expression of mNav1.7 in HEK-293T cells using the Maxcyte electroporation system.
(§3) Chips with single-hole and high-resistance 5.14 ± 0.02 MΩ (n = 384) were used for HEK-293 cell recordings. Only cells with seal resistance above 500 MΩ and Rs values <15 MΩ were kept for analyses. All Rs values were compensated at 90%. Voltage pulses and whole-cell recordings were achieved using the PatchControl384 v1.5.3 software (Nanion Technologies, Munich, Germany) and the Biomek v1.0 interface (Beckman Coulter, Villepinte, France). Prior to recordings, dissociated cells were shaken at 60 rpm in a cell hotel reservoir at 10°C. After cell catching, sealing, whole-cell formation, liquid application, recording, and data acquisition were all performed sequentially and automatically. The intracellular solution contained (in mM): 10 KCl, 110 kF, 10 NaCl, 1 MgCl2, 1 CaCl2, 10 Ethylene Glycol Tetraacetic Acid (EGTA) and 10 HEPES (pH 7.2, osmolarity 280 mOsm), and the extracellular solution (in mM): 140 NaCl, 4 KCl, 2 CaCl2, 1 MgCl2, five glucose, and 10 HEPES (pH 7.4, osmolarity 298 mOsm). Whole-cell experiments were done at −100 mV holding potential, while currents triggered at 0 mV test potential were sampled at 10 kHz (sweeps every 8 s). […]

hNav1.5 = assay: automated patch-clamp, hNav1.5; assay type: cell-based, human; details: up to 3,300 nM (Figure 4c)
Procedure: as §2
(§4) Chips with single-hole and high-resistance 5.14 ± 0.02 MΩ (n = 384) were used for HEK-293 cell recordings. Only cells with seal resistance above 500 MΩ and Rs values <15 MΩ were kept for analyses. All Rs values were compensated at 90%. Voltage pulses and whole-cell recordings were achieved using the PatchControl384 v1.5.3 software (Nanion Technologies, Munich, Germany) and the Biomek v1.0 interface (Beckman Coulter, Villepinte, France). […]

[4] = tested on: TTX-R Na^+ currents from adult mouse DRG neurons
[5] = tested on: mice (adult female Swiss); details: mouse, in vivo
Description: as §1

hNav1.4 = assay: automated patch-clamp, hNav1.4; assay type: cell-based, human
Description: as §3, with “s). Compounds were prepared at various concentrations in the extracellular solution supplemented with 0.3% BSA and distributed in 384-well plates according to a pre-designed template.” for “s).”

[6] = tested on: mice (adult female Swiss); assay: automated von Frey test (tactile sensitivity); assay type: in vivo, mouse
mNav1.7 = target: T1, mNav1.7 (Mus musculus, UniProt Q62205); assay: automated patch-clamp, mNav1.7 electroporated in HEK293 cells; assay type: cell-based; details: mNav1.7 (Figure 4b)
T1 construct: DYK (FLAG) tag of vector pcDNA3.1+/C-(K)-DYK (C); host or cells: HEK-293T cells, Maxcyte electroporation
T1 sequence (Q62205 whole entry): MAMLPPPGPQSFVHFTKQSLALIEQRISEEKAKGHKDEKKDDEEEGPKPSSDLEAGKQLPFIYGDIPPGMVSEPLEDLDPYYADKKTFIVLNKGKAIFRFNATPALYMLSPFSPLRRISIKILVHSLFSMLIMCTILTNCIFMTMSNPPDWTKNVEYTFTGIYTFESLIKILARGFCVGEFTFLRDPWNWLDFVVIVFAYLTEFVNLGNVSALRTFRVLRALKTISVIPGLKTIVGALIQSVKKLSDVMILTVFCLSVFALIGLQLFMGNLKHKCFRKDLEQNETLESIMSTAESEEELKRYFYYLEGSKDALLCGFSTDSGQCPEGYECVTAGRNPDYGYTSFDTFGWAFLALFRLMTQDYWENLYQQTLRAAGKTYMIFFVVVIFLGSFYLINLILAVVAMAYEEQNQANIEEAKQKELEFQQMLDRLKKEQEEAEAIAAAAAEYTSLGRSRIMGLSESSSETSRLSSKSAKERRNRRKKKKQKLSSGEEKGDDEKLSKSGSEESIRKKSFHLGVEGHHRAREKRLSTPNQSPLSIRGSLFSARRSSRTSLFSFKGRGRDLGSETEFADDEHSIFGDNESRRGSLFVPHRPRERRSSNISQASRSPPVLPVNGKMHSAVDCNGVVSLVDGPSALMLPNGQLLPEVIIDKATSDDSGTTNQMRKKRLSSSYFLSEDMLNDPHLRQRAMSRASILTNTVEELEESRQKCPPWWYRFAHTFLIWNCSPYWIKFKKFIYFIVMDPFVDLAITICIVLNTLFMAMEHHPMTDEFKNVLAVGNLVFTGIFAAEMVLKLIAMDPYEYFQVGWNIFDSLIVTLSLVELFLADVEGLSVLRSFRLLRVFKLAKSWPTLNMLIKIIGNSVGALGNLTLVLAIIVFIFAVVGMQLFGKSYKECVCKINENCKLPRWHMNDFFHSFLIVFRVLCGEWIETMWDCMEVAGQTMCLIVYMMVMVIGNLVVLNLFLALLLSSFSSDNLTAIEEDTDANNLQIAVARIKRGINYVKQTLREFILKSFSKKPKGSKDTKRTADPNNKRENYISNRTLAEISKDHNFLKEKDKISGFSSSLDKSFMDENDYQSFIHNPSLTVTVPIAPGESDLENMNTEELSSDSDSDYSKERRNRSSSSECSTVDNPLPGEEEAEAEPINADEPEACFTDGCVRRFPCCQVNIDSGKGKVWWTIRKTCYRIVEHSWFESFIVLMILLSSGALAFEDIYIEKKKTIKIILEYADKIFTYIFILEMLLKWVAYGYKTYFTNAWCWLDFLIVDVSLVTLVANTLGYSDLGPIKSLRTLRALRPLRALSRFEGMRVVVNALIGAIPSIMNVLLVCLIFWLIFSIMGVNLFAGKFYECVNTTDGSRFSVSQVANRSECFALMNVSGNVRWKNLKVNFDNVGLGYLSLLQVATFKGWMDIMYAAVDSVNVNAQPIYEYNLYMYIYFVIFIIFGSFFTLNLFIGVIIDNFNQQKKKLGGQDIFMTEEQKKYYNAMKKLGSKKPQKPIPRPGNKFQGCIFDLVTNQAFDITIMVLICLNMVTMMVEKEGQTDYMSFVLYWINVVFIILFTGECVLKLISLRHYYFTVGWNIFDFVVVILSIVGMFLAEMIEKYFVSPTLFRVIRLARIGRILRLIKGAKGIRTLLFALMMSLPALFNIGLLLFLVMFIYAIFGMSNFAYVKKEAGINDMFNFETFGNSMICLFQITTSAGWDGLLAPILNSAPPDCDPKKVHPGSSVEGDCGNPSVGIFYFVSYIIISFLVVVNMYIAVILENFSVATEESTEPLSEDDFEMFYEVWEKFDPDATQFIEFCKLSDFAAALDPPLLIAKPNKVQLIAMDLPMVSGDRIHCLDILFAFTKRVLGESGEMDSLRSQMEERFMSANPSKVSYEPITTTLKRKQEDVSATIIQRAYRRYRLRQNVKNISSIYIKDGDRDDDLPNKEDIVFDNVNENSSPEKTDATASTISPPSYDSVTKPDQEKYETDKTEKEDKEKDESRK
Procedure: as §2, §4

C57Bl6 mice = details: mouse, in vivo, ip
ryanodine receptor = details: ref Ronjat et al., 2016; cited from earlier work

NC1=N[C@H](O)[C@H]2[C@H]3O[C@]4(O)O[C@@H]([C@@H](O)[C@@]2(N1)[C@@H]4O)[C@]3(O)CO [TTX, tetrodotoxin, reference compound]
Na+ current remaining (% of initial peak amplitude) [1]: 64.8% ± 4.2
Na+ current remaining (% of initial peak amplitude) [2]: 9.5% ± 1.7

ω-conotoxin MVIIA
fold better affinity than non-amidated ω-conotoxin MVIIA-Gly-COOH (N-type calcium channels): 10 fold

protoxin-II: protoxin-II, Nav1.7 selective to a large extent [reference compound]
inhibition of Na+ current ([2]; 0.01 µM): 80%
Nav1.7 selectivity (Nav1.7): Nav1.7 selective to a large extent

CC[C@H](C)[C@H](NC(=O)[C@H](CCC(N)=O)NC(=O)[C@H](Cc1ccc(O)cc1)NC(=O)[C@H](CCCCN)NC(=O)[C@@H]1CSSC[C@@H]2NC(=O)[C@H](CCC(N)=O)NC(=O)[C@H](CC(=O)O)NC(=O)[C@H](CC(N)=O)NC(=O)[C@H](CO)NC(=O)[C@@H]3CCCN3C(=O)[C@H](CC(N)=O)NC(=O)[C@@H]3CSSC[C@H](NC(=O)[C@H](C(C)C)NC(=O)[C@H](CC(C)C)NC(=O)[C@H](CCCCN)NC(=O)[C@H](CO)NC(=O)[C@H](CO)NC(=O)[C@H](CCCCN)NC(=O)[C@H](CSSC[C@H](NC(=O)[C@@H](N)CCC(=O)O)C(=O)N[C@@H](CC(C)C)C(=O)N[C@@H](CCC(=O)O)C(=O)N[C@@H]([C@@H](C)CC)C(=O)N[C@@H](Cc4ccccc4)C(=O)N[C@@H](CCCCN)C(=O)N[C@@H](C)C(=O)N3)NC2=O)C(=O)N[C@@H](CO)C(=O)N[C@@H](CCCNC(=N)N)C(=O)N[C@@H](CCCCN)C(=O)N[C@@H]([C@@H](C)O)C(=O)N[C@@H](CCCNC(=N)N)C(=O)N[C@@H](Cc2c[nH]c3ccccc23)C(=O)N1)C(=O)NCC(=O)O [sHwTx-IV GCOOH]
reaction time to heat (latency to shake hind limb) ([3]; 10–98 nmol/kg intraplantar, 15–30 min, versus vehicle, P < 0.050): significant (P < 0.050) increase in the reaction time to heat
threshold analgesic dose, hot-plate ([3]; intraplantar): 10 nmol/kg
fold less potent than HwTx-IV on hNav1.7 (hNav1.7): 16 fold
nH (Hill number) (hNav1.7; hNav1.7 (Figure 4c)): −0.98
nH (Hill number) (hNav1.7; hNav1.7 in CHO cells (Figure 4a)): −0.97
inhibition of hNav1.5 (hNav1.5): no inhibition up to 3,300 nM
IC50 [4]: 2 µM
nH (Hill number) [4]: 0.8
block of TTX-R Na+ currents ([4]; 130 nM): largely sparring
death [5]: absence of death
toxicity (behaviour) after intraplantar injection [5]: no abnormal mice behavior
inhibition of hNav1.4 (hNav1.4): not affected
force intensity for hind limb withdrawal ([6]; 98 nmol/kg intraplantar, 15–30 min, versus vehicle, P < 0.010): significantly (P < 0.010) increased
dose efficiency difference between both peptides, von Frey ([6]; 14–98 nmol/kg intraplantar): no dose efficiency difference could be observed between both peptides
IC50 [2]: 0.014 µM
TTX-S peak current amplitude after wash-out [2]: −3.2 ± 0.7 nA
TimeA (10% to 90% current increase, activation) [2]: 0.31 ± 0.06 ms and 0.27 ± 0.07 ms and 0.28 ± 0.11 ms
TimeI (90% to 10% current decrease, inactivation) [2]: 6.93 ± 1.23 ms and 6.66 ± 1.42 ms and 6.59 ± 1.24 ms
effect on activation or inactivation kinetics [2]: did not alter activation or inactivation kinetics
fold more potent on TTX-S DRG currents than on mNav1.7 currents [2]: 11.8 fold
fold more potent than HwTx-IV on mouse DRG TTX-S Na+ currents [2]: 9.5 fold
nH (Hill number) [2]: 0.7
reversibility of effect on TTX-S current [2]: reversible
slope (kG) of conductance-voltage curves [2]: slight, but significant (P < 0.002), changes
VI50% (voltage of 50% inactivation) ([2]; 13 nM, n = 4): −82 ± 2 mV
VA50% (voltage of 50% maximal conductance) ([2]; 13 nM, n = 5): −32 ± 1 mV
block of TTX-S Na+ currents ([2]; 130 nM): potently blocked
time to stationary TTX-S peak current block ([2]; 130 nM, n = 8): 2.6 ± 0.6 min
nH (Hill number) (mNav1.7): −0.90
animals with signs of hindlimb weakness (C57Bl6 mice): Seven out of 10
death (C57Bl6 mice): none of the animals died
distance travelled (C57Bl6 mice): unaffected
duration of activity (C57Bl6 mice): unaffected
number of movements, 60 min (C57Bl6 mice): accentuated 60 min later
number of movements, first 10 min (C57Bl6 mice): reduction in the number of movements
rearing events (C57Bl6 mice): reduced
signs of suffering (C57Bl6 mice): no signs of suffering

maurocalcin: a scorpion venom peptide (GDCLPHLKLCKENKDCCSKKCKRRGTNIEKRCR; UniProt P60254 1-33, looked up)
effect of phosphorylation by protein kinase A (ryanodine receptor): converts the peptide from an allosteric activator to a ryanodine receptor blocker
